Converted amounts (≈) assume the structure as drawn.
How the values were obtained:
Format in all cases: functional
Pseudomonas aeruginosa [1] = experiment: Antibacterial activity against Pseudomonas aeruginosa SR24 after 20 hrs by agar dilution method
Escherichia coli [2] = experiment: Antibacterial activity against Toho 2 (ESBL) producing Escherichia coli SR-21003 after 20 hrs by agar dilution method
Pseudomonas aeruginosa [3] = experiment: Antibacterial activity against Pseudomonas aeruginosa SR-5393 after 20 hrs by agar dilution method
Pseudomonas aeruginosa [4] = experiment: Antibacterial activity against AmpC hyperproducing Pseudomonas aeruginosa SR24-12 after 20 hrs by agar dilution method
Escherichia coli [5] = experiment: Antibacterial activity against Escherichia coli NIHJJC2 after 20 hrs by agar dilution method
Enterobacter cloacae [6] = experiment: Antibacterial activity against Enterobacter cloacae ATCC 13047 after 20 hrs by agar dilution method; conditions: ATCC 13047, 20 h
Pseudomonas aeruginosa [7] = experiment: Antibacterial activity against Imipenem resistant Pseudomonas aeruginosa SR-6554 after 20 hrs by agar dilution method
Enterobacter cloacae [8] = experiment: Antibacterial activity against AmpC producing Enterobacter cloacae SR-4321 after 20 hrs by agar dilution method
Haemophilus influenzae [9] = experiment: Antibacterial activity against Haemophilus influenzae ATCC 49766 after 20 hrs by agar dilution method; conditions: ATCC 49766, 20 h
Pseudomonas aeruginosa [10] = experiment: Antibacterial activity against CAZ resistant Pseudomonas aeruginosa SR24-12 infected in mouse after 7 days; conditions: 168 h
Haemophilus influenzae [11] = experiment: Antibacterial activity against beta-lactamase negative ampicillin resistant Haemophilus influenzae SR-11435 after 20 hrs by agar dilution method
Streptococcus pneumoniae = experiment: Antibacterial activity against penicillin resistant Streptococcus pneumoniae SR-16675 after 20 hrs by agar dilution method
Pseudomonas aeruginosa [12] = experiment: Antibacterial activity against CAZ susceptible Pseudomonas aeruginosa SR24 infected in mouse after 7 days; conditions: 168 h
Moraxella catarrhalis = experiment: Antibacterial activity against Moraxella catarrhalis ATCC 43617 after 20 hrs by agar dilution method; conditions: ATCC 43617, 20 h
Staphylococcus aureus = experiment: Antibacterial activity against […] Staphylococcus aureus SMITH after 20 hrs by agar dilution method

Structure (SMILES)	MIC (Pseudomonas aeruginosa [1]) [µg/mL]	MIC (Escherichia coli [2]) [µg/mL]	MIC (Pseudomonas aeruginosa [3]) [µg/mL]	MIC (Pseudomonas aeruginosa [4]) [µg/mL]	MIC (Escherichia coli [5]) [µg/mL]	MIC (Enterobacter cloacae [6]) [µg/mL]	MIC (Pseudomonas aeruginosa [7]) [µg/mL]	MIC (Enterobacter cloacae [8]) [µg/mL]	MIC (Haemophilus influenzae [9]) [µg/mL]	ED50 (Pseudomonas aeruginosa [10]) [mg/kg]	MIC (Haemophilus influenzae [11]) [µg/mL]	MIC (Streptococcus pneumoniae) [µg/mL]	ED50 (Pseudomonas aeruginosa [12]) [mg/kg]	MIC (Moraxella catarrhalis) [µg/mL]	MIC (Staphylococcus aureus) [µg/mL]
CNCCCn1cnc2c1ccc[n+]2CC1=C(C(=O)[O-])N2C(=O)[C@@H](NC(=O)/C(=N\OC(C)(C)C(=O)O)c3csc(N)n3)[C@H]2SC1	1 (≈ 1.52 µM)	2 (≈ 3.04 µM)	4 (≈ 6.08 µM)	> 128	0.5 (≈ 0.76 µM)	4 (≈ 6.08 µM)	128 (≈ 195 µM)	128 (≈ 195 µM)							
CNCCCn1ccc2c1ccc[n+]2CC1=C(C(=O)[O-])N2C(=O)[C@@H](NC(=O)/C(=N\O[C@@H](C)C(=O)O)c3nc(N)sc3Cl)[C@H]2SC1	1 (≈ 1.48 µM)	4 (≈ 5.91 µM)	2 (≈ 2.95 µM)	4 (≈ 5.91 µM)	0.25 (≈ 0.369 µM)	0.5 (≈ 0.738 µM)	8 (≈ 11.8 µM)	2 (≈ 2.95 µM)	0.032 (≈ 0.0473 µM)	5.32	0.063 (≈ 0.093 µM)	2 (≈ 2.95 µM)	1.4	0.016 (≈ 0.0236 µM)	1 (≈ 1.48 µM)
CNCCCn1ccc2c1ccc[n+]2CC1=C(C(=O)[O-])N2C(=O)[C@@H](NC(=O)/C(=N\O[C@H](C(=O)O)C(C)C)c3nc(N)sc3Cl)[C@H]2SC1	2 (≈ 2.84 µM)	8 (≈ 11.3 µM)	8 (≈ 11.3 µM)	8 (≈ 11.3 µM)	2 (≈ 2.84 µM)	4 (≈ 5.67 µM)	16 (≈ 22.7 µM)	8 (≈ 11.3 µM)	0.032 (≈ 0.0454 µM)		0.063 (≈ 0.0893 µM)	4 (≈ 5.67 µM)		0.016 (≈ 0.0227 µM)	1 (≈ 1.42 µM)
CC[C@H](O/N=C(\C(=O)N[C@@H]1C(=O)N2C(C(=O)[O-])=C(C[n+]3cccc4c3ccn4CCCNC)CS[C@H]12)c1nc(N)sc1Cl)C(=O)O	1 (≈ 1.45 µM)	4 (≈ 5.79 µM)	4 (≈ 5.79 µM)	4 (≈ 5.79 µM)	1 (≈ 1.45 µM)	1 (≈ 1.45 µM)	16 (≈ 23.1 µM)	4 (≈ 5.79 µM)	0.032 (≈ 0.0463 µM)		0.063 (≈ 0.0911 µM)	4 (≈ 5.79 µM)		0.016 (≈ 0.0231 µM)	1 (≈ 1.45 µM)
CNCCCn1ccc2c1ccc[n+]2CC1=C(C(=O)[O-])N2C(=O)[C@@H](NC(=O)/C(=N\OCC(=O)O)c3nc(N)sc3Cl)[C@H]2SC1	0.5 (≈ 0.754 µM)	2 (≈ 3.02 µM)	2 (≈ 3.02 µM)	8 (≈ 12.1 µM)	0.25 (≈ 0.377 µM)	0.25 (≈ 0.377 µM)	8 (≈ 12.1 µM)	8 (≈ 12.1 µM)	0.032 (≈ 0.0483 µM)		0.125 (≈ 0.188 µM)	2 (≈ 3.02 µM)		0.016 (≈ 0.0241 µM)	2 (≈ 3.02 µM)
CNCCCn1ccc2c1ccc[n+]2CC1=C(C(=O)[O-])N2C(=O)[C@@H](NC(=O)/C(=N\O[C@@H](C)C(=O)O)c3nc(N)sc3F)[C@H]2SC1	1 (≈ 1.51 µM)	16 (≈ 24.2 µM)	8 (≈ 12.1 µM)	> 128	0.031 (≈ 0.0469 µM)	1 (≈ 1.51 µM)	128 (≈ 194 µM)	> 128	0.063 (≈ 0.0954 µM)		0.25 (≈ 0.378 µM)	16 (≈ 24.2 µM)		0.5 (≈ 0.757 µM)	2 (≈ 3.03 µM)
CNCCCn1ccc2c1ccc[n+]2CC1=C(C(=O)[O-])N2C(=O)[C@@H](NC(=O)/C(=N\O[C@@H](C)C(=O)O)c3csc(N)n3)[C@H]2SC1	0.5 (≈ 0.778 µM)	1 (≈ 1.56 µM)	2 (≈ 3.11 µM)	32 (≈ 49.8 µM)	0.063 (≈ 0.098 µM)	0.25 (≈ 0.389 µM)	16 (≈ 24.9 µM)	16 (≈ 24.9 µM)	0.032 (≈ 0.0498 µM)		0.063 (≈ 0.098 µM)	8 (≈ 12.4 µM)		0.125 (≈ 0.194 µM)	2 (≈ 3.11 µM)
CNCCCn1ccc2c1ccc[n+]2CC1=C(C(=O)[O-])N2C(=O)[C@@H](NC(=O)/C(=N\OC3(C(=O)O)CC3)c3nc(N)sc3Cl)[C@H]2SC1	1 (≈ 1.45 µM)	4 (≈ 5.8 µM)	4 (≈ 5.8 µM)	4 (≈ 5.8 µM)	0.5 (≈ 0.726 µM)	0.5 (≈ 0.726 µM)	16 (≈ 23.2 µM)	2 (≈ 2.9 µM)	0.016 (≈ 0.0232 µM)		0.032 (≈ 0.0464 µM)	4 (≈ 5.8 µM)		0.008 (≈ 0.0116 µM)	1 (≈ 1.45 µM)
CNCCCn1ccc2c1ccc[n+]2CC1=C(C(=O)[O-])N2C(=O)[C@@H](NC(=O)/C(=N\OC(C)(C)C(=O)O)c3csc(N)n3)[C@H]2SC1	1 (≈ 1.52 µM)	2 (≈ 3.05 µM)	2 (≈ 3.05 µM)	32 (≈ 48.7 µM)	0.25 (≈ 0.381 µM)	1 (≈ 1.52 µM)	16 (≈ 24.4 µM)	16 (≈ 24.4 µM)							
